A word on the inhibition: it is how much of the control response was suppressed. One may read the IC50 as the midpoint of a concentration-inhibition curve.

Experiment [1] concerns the target T1, SARS-CoV-2 3CLpro (Severe acute respiratory syndrome coronavirus 2, UniProt P0DTD1).
T1 construct: The kit contains assay buffer (125 mL, blank control), 2019-nCoV-2 3CLpro (500 μL), substrate (1 mL); purchased Beyotime Biotechnology (Shanghai, China) P0312M
The experiment is described as follows: biochemical. Conditions: for inhibition at 100 µM: compound concentration 100 μM; for inhibition at 100 µM / inhibition at 10 µM: read-out: Inhibition rate (%) against 3CLpro; for IC50: FRET assay, serial dilution, read-out: IC50 against SARS-CoV-2 3CLpro; for inhibition at 10 µM: compound concentration 10 μM.

Experiment [2] has as its target T1, SARS-CoV-2 3CLpro. More on the design: method as in PMID 32963564. Conditions: in vitro; read-out: IC50 on SARS-CoV-2 3CLpro protein activity; cited from earlier work.

Each structure is given as a SMILES string. Where two headings read alike, the source gives them in different places. Where only a bound is given, the exact number is not on record here.

Regarding `Oc1cc(O)c2c(c1)O[C@H](c1ccc(O)c(O)c1)[C@H](O)C2` [Compound 1, (−)-epicatechin], the inhibition at 100 µM at SARS-CoV-2 3CLpro [1] is above 50%.

As to `Oc1cc(O)c2c(c1)O[C@H](c1cc(O)c(O)c(O)c1)[C@H](O)C2` [Compound 4, (−)-epigallocatechin], on SARS-CoV-2 3CLpro [1], the IC50 was 12 ± 1.9 µM and the inhibition at 10 µM is above 50%.

In the case of `O=C(O[C@@H]1Cc2c(O)cc(O)cc2O[C@@H]1c1cc(O)c(O)c(O)c1)c1cc(O)c(O)c(O)c1` [Compound 5, (−)-epigallocatechin-3-O-gallate], the inhibition at 10 µM at SARS-CoV-2 3CLpro [1] is above 50%.

On to `COc1cc(C(=O)O[C@@H]2Cc3c(O)cc(O)cc3O[C@@H]2c2cc(O)c(O)c(O)c2)cc(O)c1O` [Compound 6, (−)-epigallocatechin-3-(3′-O-methyl)-gallate], for which, at SARS-CoV-2 3CLpro [1], the IC50 is 9.8 ± 0.4 µM and the inhibition at 10 µM is above 50%.

On to `O=C(O[C@@H]1Cc2c(O)cc(O)cc2O[C@@H]1c1ccc(O)cc1)c1cc(O)c(O)c(O)c1` [Compound 7, (−)-epiafzelechin-3-O-gallate], for which the inhibition at 100 µM at SARS-CoV-2 3CLpro [1] was above 50%. On to `O=C(O[C@H]1Cc2c(O)cc(O)cc2O[C@@H]1c1cc(O)c(O)c(O)c1)c1cc(O)c(O)c(O)c1` [Compound 9, (−)-gallocatechin-3-O-gallate], for which the inhibition at 10 µM at SARS-CoV-2 3CLpro [1] is above 50%. On to `CCN1C(=O)CC[C@@H]1c1c(O)cc2c(c1O)C[C@@H](O)[C@@H](c1cc(O)c(O)c(O)c1)O2` [Compound 11, 6-(5″R)-N-ethyl-2-pyrrolidinone-epigallocatechin], for which, on SARS-CoV-2 3CLpro [1], the IC50 came out at 22.4 ± 5.8 µM and the inhibition at 100 µM was above 50%. On the same counts, the results for `CCN1C(=O)CC[C@H]1c1c(O)cc2c(c1O)C[C@@H](O)[C@@H](c1cc(O)c(O)c(O)c1)O2` [Compound 12, 6-(5″S)-N-ethyl-2-pyrrolidinone-epigallocatechin] are 26.8 ± 0.9 µM and above 50%. On the same counts, the results for `CCN1C(=O)CC[C@H]1c1c(O)cc(O)c2c1O[C@H](c1cc(O)c(O)c(O)c1)[C@H](O)C2` [Compound 14, puerin V] are 14.9 ± 1.4 µM and above 50%. On the same counts, the results for `CCN1C(=O)CC[C@@H]1c1c(O)cc(O)c2c1O[C@H](c1cc(O)c(O)c(O)c1)[C@H](O)C2` [Compound 15, puerin VI] are 14.5 ± 1.1 µM and above 50%. For the compound `COc1cc(C(=O)O[C@@H]2Cc3c(O)cc(O)cc3O[C@@H]2c2cc(O)c(O)c(O)c2-c2c([C@H]3Oc4cc(O)cc(O)c4C[C@H]3O)cc(O)c(O)c2O)cc(O)c1O` [Compound 20, Epigallocatechin-(2′→2′)-epigallocatechin-3-(3″-O-methyl)-gallate], on SARS-CoV-2 3CLpro [1], the IC50 amounted to 42.1 µM and the inhibition at 100 µM is above 50%. Regarding `O=C(O[C@@H]1Cc2c(O)cc(O)cc2O[C@@H]1c1cc(O)c(O)c(O)c1-c1c([C@H]2Oc3cc(O)cc(O)c3C[C@H]2OC(=O)c2cc(O)c(O)c(O)c2)cc(O)c(O)c1O)c1cc(O)c(O)c(O)c1` [Compound 21, theasinensin A], at SARS-CoV-2 3CLpro [1], the inhibition at 100 µM was above 50%. Regarding `C[C@@H]1O[C@@H](OC[C@H]2O[C@@H](Oc3c(-c4ccc(O)cc4)oc4cc(O)cc(O)c4c3=O)[C@H](OC(=O)/C=C\c3ccc(O)cc3)[C@@H](O)[C@H]2O)[C@H](O)[C@H](O[C@@H]2O[C@H](CO)[C@@H](O)[C@H](O)[C@H]2O)[C@H]1O` [Compound 32, Kaempferol-3-O-[2″-O-(Z)-p-coumaroyl] [β-D-glucopyranosyl-(1→3)-O-α-L-rhamnopyranosyl-(1→6)]-β-D-galactopyranoside], on SARS-CoV-2 3CLpro [1], the IC50 came to 61.1 µM and the inhibition at 100 µM was above 50%.

For the compound `O=c1c(O)cc([C@H]2Oc3cc(O)cc(O)c3C[C@H]2O)cc2c([C@H]3Oc4cc(O)cc(O)c4C[C@H]3O)cc(O)c(O)c12` [theaflavin], the IC50 on SARS-CoV-2 3CLpro [2] was 15 µM.

The record behind these values is PMC11901911, “Diverse Structures of Tea Polyphenols from Rougui Wuyi Rock Tea and Their Potential as Inhibitor of 3C-like Protease” (Molecules, 2025).
